According to patent US20120165223A1 (priority 2006, published 2012):

Tested on: crypt cells of the colon of HFA mice
Conditions: DNA chip, colonic crypt cells, 200 mg/kg orally four days
Protocol: The collected colon is opened and intestinal content is cleaned with a sterilized saline solution and put in a cryomold in the longitudinal direction to be embedded as an OCT compound and then it is maintained in a freezer at −80° C. The frozen tissue is cut to have the thickness of 8 μm using a cryotome, put on a glass slide (HistoGene LCM slide, Arcturus) and cleaned using a staing (HistoGene LCM frozen section staing kit, Arcturus) and then a hematoxylin stain is performed and then dehydrated. The stained colonic tissue slide of the dyed mice is put on a laser captured microdissector (PixCell II, Arcturus) and crypt cells are isolated from the colon by a laser.
The amplified aRNA (24 μl) of 10 μg is mixed with random hexamer (5 mg/Ml) of 2 μl to be 24 μl which is heated for 10 minutes at 70° C. The first strand master mix liquid of 26 μl containing Cy3- or Cy5-dUTP (1 mM, respectively) is added to aRNA and reacted for two hours at 37° C. […] After the cDNA is deactivated for three minutes at 98° C., a control target of 25 μl with 2× hybridization buffer of 105 μl (Agilent In situ Hybridization kit) to be instilled on a mouse DNA microarray chip (TwinChip Mouse 7.4K cDNA array, Digital Genomics, Seoul, Korea) and hybridized for 17 hours at 60° C. […] Each fluorescence intensity is obtained by performing a global normalization and measuring the ratio of expressing Cy3- and Cy5- fluorescence with respect to one gene.

Row | SMILES | Ang gene expression in comparison with HFA (FIG. 4a) | Casp14 gene expression in comparison with HFA (FIG. 3A) | Eif2ak3 gene expression in comparison with HFA (FIG. 3A) | I16 gene expression in comparison with HFA (FIG. 3A) | Mpp1 gene expression in comparison with HFA (FIG. 4a) | Mt1 gene expression in comparison with HFA (FIG. 4a) | S1c26a1 gene expression in comparison with HFA (FIG. 4a) | Saa3 gene expression in comparison with HFA (FIG. 4a) | Spn2a gene expression in comparison with HFA (FIG. 3A) | Tegt gene expression in comparison with HFA (FIG. 3A)
1 | O=C(O)c1cn(C2CC2)c2cc(N3CCNCC3)c(F)cc2c1=O [Cip, Ciprofloxacin] | nearly two or four times | increase the expression of the genes | increase the expression of the genes | increase the expression of the genes | prevent genes from expressing themselves more than twice | nearly two or four times | prevent genes from expressing themselves more than twice | prevent genes from expressing themselves more than twice | prevent genes from expressing themselves more than twice | prevent genes from expressing themselves more than twice
2 | CN(C)[C@@H]1C(=O)C(C(N)=O)=C(O)[C@@]2(O)C(=O)C3=C(O)c4c(O)cccc4[C@@](C)(O)[C@H]3C[C@@H]12 [TC, Tetracycline] | nearly two or four times | increase the expression of the genes | increase the expression of the genes | increase the expression of the genes | prevent genes from expressing themselves more than twice | nearly two or four times | prevent genes from expressing themselves more than twice | prevent genes from expressing themselves more than twice | prevent genes from expressing themselves more than twice | prevent genes from expressing themselves more than twice
